Where “and” joins values, the source holds several entries; their conditions need not be identical. Equal values may be shown once.
T1: SGLT2 (Homo sapiens, UniProt P31639)
T1 construct: Human full-length SGLT2 cDNA (NM_003041.3) was synthesized; expressed in transfected cells; host or cells: HEK293, retroviral transduction with pMSCVpuro-SGLT2, puromycin selected
T1 sequence (P31639 1-672): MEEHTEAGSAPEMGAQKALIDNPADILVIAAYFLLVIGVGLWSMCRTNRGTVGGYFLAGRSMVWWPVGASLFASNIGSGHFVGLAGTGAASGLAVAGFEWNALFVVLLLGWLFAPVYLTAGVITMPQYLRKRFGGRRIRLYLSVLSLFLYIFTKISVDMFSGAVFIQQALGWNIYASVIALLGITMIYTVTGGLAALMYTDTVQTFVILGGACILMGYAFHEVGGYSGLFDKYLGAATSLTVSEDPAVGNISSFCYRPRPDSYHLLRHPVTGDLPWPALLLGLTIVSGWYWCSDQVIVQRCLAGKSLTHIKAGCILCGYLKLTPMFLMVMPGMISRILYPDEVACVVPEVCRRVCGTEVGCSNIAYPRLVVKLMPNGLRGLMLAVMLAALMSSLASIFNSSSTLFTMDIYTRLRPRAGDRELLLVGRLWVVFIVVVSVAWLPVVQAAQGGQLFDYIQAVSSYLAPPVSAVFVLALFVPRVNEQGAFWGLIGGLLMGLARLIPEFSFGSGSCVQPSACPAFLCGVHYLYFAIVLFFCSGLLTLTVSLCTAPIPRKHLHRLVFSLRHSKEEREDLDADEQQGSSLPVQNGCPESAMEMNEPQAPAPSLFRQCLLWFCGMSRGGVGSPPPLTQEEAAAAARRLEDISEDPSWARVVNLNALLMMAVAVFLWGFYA


Tests used:
AbCGT = AbCGT (Aloe vera, UniProt A0A7G9P699); assay: Glycosyltransferase activity assay, purified AbCGT (wild type) with aglycon acceptors and UDP-Glc; assay type: biochemical, Aloe barbadensis; conditions: fig. 2b, purified AbCGT, redesigned substrates; Reaction-1 to -3
in vitro = conditions: human
SGLT2 = target: T1, SGLT2; assay: 1-NBDG uptake in HEK293 cells stably expressing SGLT2; assay type: cell-based; conditions: HEK293, compound at 10 μM; triplicate; read-out: SGLT2 inhibitory rates
[1] = system: Influenza A/WSN/33 (H1N1); assay: microbe, parasite or virus in culture; assay type: cell-based; conditions: — = no inhibition activity
E. coli-AbCGT = assay: Glycosylation by whole-cell biocatalyst E. coli-AbCGT; assay type: cell-based; conditions: fig. 2c, 30 °C, M9 medium, 12 h, 0.25 mM acceptor; Reaction-1 to -3
Protocol: The induced cells of E. coli-AbCGT were harvested by centrifugation at 3000 × g for 5 min at 4 °C and washed with ddH2O. Pellets were resuspended by M9 minimal medium containing 2% glucose to appropriate cell density (OD600 = 3.0). Prepared whole-cell biocatalyst of E. coli-AbCGT (500 μL) was then added to 2-mL tubes containing various acceptors at a concentration of 0.25 mM. The mixture was incubated at 30 °C for 12 h with shaking (200 rpm). The reactions were analyzed using GT activity assays as described above. For quantification, three parallel assays were routinely carried out.

[2] = substrate: O=C(CCc1ccc(O)cc1)c1c(O)cc(O)cc1O; assay: Kinetic parameters of AbCGT (wild type); assay type: biochemical, Aloe barbadensis; conditions: other: acceptor varied, UDP-Glc as donor, pH 7.4, 30 °C
Protocol: (§1) The reactions terminated by the addition of 200 μL of ice-cold methanol. Subsequently, samples were centrifuged at 15,000 × g for 30 min to collect the supernatant, and aliquots were analyzed by HPLC as described above. All experiments were performed in triplicate. The value of Km was calculated with the method of Lineweaver–Burk plot.

[3] = substrate: O=C1C[C@@](O)(c2ccc(O)cc2)Oc2cc(O)cc(O)c21; assay: Kinetic parameters of AbCGT (wild type); assay type: biochemical, Aloe barbadensis; conditions: other: acceptor varied, UDP-Glc as donor, pH 7.4, 30 °C
Protocol: as §1

[4] = substrate: CC(=O)c1c(O)cc(O)cc1O; assay: Kinetic parameters of AbCGT (wild type); assay type: biochemical, Aloe barbadensis; conditions: other: acceptor varied, UDP-Glc as donor, pH 7.4, 30 °C
Protocol: as §1

| Molecule | conversion rates, Purified Enzyme (AbCGT) | CC50 (in vitro) | inhibition at 10 µM (SGLT2) | inhibition at 20 µM ([1]; final concentration 20 μM, read-out: Inhibitory Rates, anti-influenza A virus activity) | IC50 ([1]; read-out: IC50, anti-influenza A virus activity) | conversion rates, Whole cells (E. coli-AbCGT) | Km [2] | kcat [2] | Km [3] | Km [4] | kcat [4] |
| --- | --- | --- | --- | --- | --- | --- | --- | --- | --- | --- | --- |
| Oc1cc(O)c(Cc2ccc3nccnc3c2)c(O)c1 [Compound 44] | 100% | > 200 µM | 0.2% | < 0% | > 20 µM | 7.1% and 12.8% and 10.1% | – | – | – | – | – |
| AbCGT (Aloe vera) (protein) MSNSGRPHVALLPSAGMGHLTPFCRLAALLSSRGGGDLDVSFITAEPTVSLKEYLQIRDLLSSFPSIKSHRFKVPELSPSQFPSSPDPFFQQWESIRRCAHLLPPLLASATALIIDTASASAVLPVAKQLNIPAYILFTSSASMLSLVAHFPSHVISSTSPSAPLMSNILIPGLKHPVPAAWVPPPLHVPGHIFSTLTVDNGRCLPEADGVIINTFDALEPEVLAALNGGRVAHGLPRVFAVGPLVAPPPPQQMEETGGGDYPIAWLDRQRDKSVVYVSFGSRTAMSPEQIRELAAGLERSGCSFLWVIKTKKVDRDEEETDLGALLGEGYVERVKGRGLVVNGWVEQEEILRHRAVGGFVSHCGWNSVTEAAVAGVRVLCWPRMGDQRLNAEVVRRSGVGVWMEEWSWEAEGGVVGGEEIGRRVKEMMEDEGLRDSAERVAEEARVALGVGGTSSKEMEEFISRIMMGS | – | – | – | – | – | – | 146.0 ± 10.2 µM | 2 ± 0.138 s⁻¹ | 414.5 ± 23.7 µM | 176.2 ± 11.7 µM | 2.4 ± 0.152 s⁻¹ |

From article PMC7558026, “Exploring and applying the substrate promiscuity of a C-glycosyltransferase in the chemo-enzymatic synthesis of bioactive C-glycosides” (Nature Communications, 2020)
